Like-named read-outs stand apart in the source and are kept apart here.
Experiments:
Format in all cases: cell-based
OR7C1 = molecular target: T1, OR7C1 (Homo sapiens, UniProt O76099, D296E/G302K/M297V/R299D/T295K); assay: Luciferase dose-response, wild-type vs changed C-terminus (SEQ ID NO: 86); conditions: for EC50: read-out: Potency EC50
T1 construct: expressed in transfected cells; host or cells: HEK293T cells stably expressing human RTP1S (V227I) and RTP2 (L220R); transient transfection of pcDNA3.1(+) OR plasmid
T1 sequence (O76099 with tags, fused parts or gaps T295K/D296E/M297V/R299D/G302K limits assumed): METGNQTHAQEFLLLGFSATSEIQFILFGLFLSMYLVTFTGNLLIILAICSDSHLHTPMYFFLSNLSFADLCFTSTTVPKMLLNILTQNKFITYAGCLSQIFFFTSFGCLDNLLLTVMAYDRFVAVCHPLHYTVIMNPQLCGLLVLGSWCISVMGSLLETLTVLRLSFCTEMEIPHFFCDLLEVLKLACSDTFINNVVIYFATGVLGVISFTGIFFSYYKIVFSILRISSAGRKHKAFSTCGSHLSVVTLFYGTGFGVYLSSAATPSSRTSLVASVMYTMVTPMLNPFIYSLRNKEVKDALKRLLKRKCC
Description: (§1) To create an expression plasmid, an OR coding sequence fused at the end of TM7 to the desired C-terminus sequence was synthesized by a DNA synthesis service provider (BioCat GmbH, Germany) and inserted into pcDNA3.1(+) (Invitrogen, MA, USA) downstream of the CMV promoter sequence (SEQ ID NO: 82) using BamHI and Notl restriction sites. All the synthetic OR nucleotide sequences described below in Examples 1-15 further contained at their N-terminus a nucleotide sequence encoding a signal peptide (mmLucy-FLAG-rho, SeQ ID NOs: 80, 81) and at the C-terminus the bgh terminator sequence (SEQ ID NO: 83). All the OR expression plasmids also contain a Kozak sequence (GCCACC) between the BamHI restriction site and the start codon of the signal peptide. These plasmids thus contain a constitutively expressed OR gene.

OR10A3 = molecular target: T2, OR10A3 (Homo sapiens, UniProt P58181); assay: Luciferase assay with odorant mixtures/single ingredients, OR with SEQ ID NO: 221
T2 construct: expressed in transfected cells; host or cells: HEK293T stably expressing human RTP1S(V227I) and RTP2(L220R) (general method)
T2 sequence (P58181 with tags, fused parts or gaps): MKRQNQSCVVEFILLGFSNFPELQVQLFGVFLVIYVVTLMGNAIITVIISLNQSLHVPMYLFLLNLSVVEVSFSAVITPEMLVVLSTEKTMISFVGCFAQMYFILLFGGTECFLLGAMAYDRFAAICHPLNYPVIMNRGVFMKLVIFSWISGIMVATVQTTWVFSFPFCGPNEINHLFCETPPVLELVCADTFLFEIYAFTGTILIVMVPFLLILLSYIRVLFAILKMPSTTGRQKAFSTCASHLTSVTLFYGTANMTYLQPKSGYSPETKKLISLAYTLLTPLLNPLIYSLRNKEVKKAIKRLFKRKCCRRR
Description: (§2) All human class II OR and all key genetic variants of these OR were synthesized with a sequence coding for an identical modified C-terminal domain […] (SEQ ID NO: 221) in the vector pcDNA3.1(+) to generate a library of all class II OR with an improved C-terminal domain. Class II OR library members with modified C-terminal domains
(§3) Similarly, a mixture of odorants with fruity-lactonic descriptors was made containing equal amounts of dodecalactone delta, heptalactone gamma, octalactone gamma, nonalactone gamma, undecalactone gamma, decalactone gamma, dodecalactone gamma, decalactone delta, methyl tuberate and nectaryl. […] Table 25. OR identified by screening class II OR with a mixture of fruity lactones
(§4) In a subsequent de-convolution experiment, the single ingredients were tested in a dose-response test on all the identified OR. […] Thus, OR2AP1 and OR2J2 are particularly strongly activated by the long-chain dodecalactone gamma, while OR10A3 is very sensitive to several longer chain lactones. […] Among the five OR, OR10A3 is the most sensitive. […] Table 26. OR identified by screening class II OR with a mixture of fruity lactones tested with individual lactones in a dose-response analysis

[1] = molecular target: T3, OR10A6(A117V,V140G,L287P) (Homo sapiens, UniProt Q8NH74, A117V/L287P/V140G); assay: as above
T3 construct: expressed in transfected cells; host or cells: HEK293T stably expressing human RTP1S(V227I) and RTP2(L220R) (general method)
T3 sequence (Q8NH74 with tags, fused parts or gaps A117V/V140G/L287P): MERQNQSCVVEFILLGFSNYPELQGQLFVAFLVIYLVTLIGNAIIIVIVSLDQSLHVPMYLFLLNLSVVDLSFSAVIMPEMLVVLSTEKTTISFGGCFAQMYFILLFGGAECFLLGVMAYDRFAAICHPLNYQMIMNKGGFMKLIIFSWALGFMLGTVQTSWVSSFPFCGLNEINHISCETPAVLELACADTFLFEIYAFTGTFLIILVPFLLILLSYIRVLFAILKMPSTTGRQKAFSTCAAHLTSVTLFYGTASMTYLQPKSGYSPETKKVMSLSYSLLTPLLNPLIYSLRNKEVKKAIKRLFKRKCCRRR
Description: as §2, §3, §4

OR10J1(M51I,I92M) = molecular target: T4, OR10J1(M51I,I92M) (Homo sapiens, UniProt P30954, I103M/M62I); assay: as above
T4 construct: expressed in transfected cells; host or cells: HEK293T stably expressing human RTP1S(V227I) and RTP2(L220R) (general method)
T4 sequence (P30954 with tags, fused parts or gaps M62I/I103M): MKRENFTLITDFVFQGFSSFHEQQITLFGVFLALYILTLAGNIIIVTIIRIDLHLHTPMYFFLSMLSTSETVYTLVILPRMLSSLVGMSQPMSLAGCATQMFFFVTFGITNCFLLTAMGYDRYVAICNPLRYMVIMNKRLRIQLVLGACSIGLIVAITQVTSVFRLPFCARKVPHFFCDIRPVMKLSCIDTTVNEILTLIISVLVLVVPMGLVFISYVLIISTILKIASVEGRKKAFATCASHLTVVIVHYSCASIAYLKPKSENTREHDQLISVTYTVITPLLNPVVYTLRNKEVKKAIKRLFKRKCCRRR
Description: as §2, §3, §4

OR2J2 = molecular target: T5, OR2J2 (Homo sapiens, UniProt O76002, A146V/A218T/A302I/G300K/H297E/H74Y); assay: as above
T5 construct: expressed in transfected cells; host or cells: HEK293T stably expressing human RTP1S(V227I) and RTP2(L220R) (general method)
T5 sequence (O76002 with tags, fused parts or gaps H74Y/A146V/A218T/H297E/G300K/A302I): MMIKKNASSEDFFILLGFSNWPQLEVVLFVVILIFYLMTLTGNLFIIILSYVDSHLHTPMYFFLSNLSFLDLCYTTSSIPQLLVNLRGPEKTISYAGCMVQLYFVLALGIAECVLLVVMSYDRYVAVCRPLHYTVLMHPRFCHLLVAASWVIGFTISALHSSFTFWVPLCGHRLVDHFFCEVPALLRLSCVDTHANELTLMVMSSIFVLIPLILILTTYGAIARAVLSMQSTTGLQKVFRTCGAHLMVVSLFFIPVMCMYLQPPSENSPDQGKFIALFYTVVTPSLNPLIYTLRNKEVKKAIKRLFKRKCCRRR
Description: as §2, §3, §4

OR2AP1 = molecular target: T6, OR2AP1 (Homo sapiens, UniProt Q8NGE2); assay: as above
T6 construct: expressed in transfected cells; host or cells: HEK293T stably expressing human RTP1S(V227I) and RTP2(L220R) (general method)
T6 sequence (Q8NGE2 with tags, fused parts or gaps): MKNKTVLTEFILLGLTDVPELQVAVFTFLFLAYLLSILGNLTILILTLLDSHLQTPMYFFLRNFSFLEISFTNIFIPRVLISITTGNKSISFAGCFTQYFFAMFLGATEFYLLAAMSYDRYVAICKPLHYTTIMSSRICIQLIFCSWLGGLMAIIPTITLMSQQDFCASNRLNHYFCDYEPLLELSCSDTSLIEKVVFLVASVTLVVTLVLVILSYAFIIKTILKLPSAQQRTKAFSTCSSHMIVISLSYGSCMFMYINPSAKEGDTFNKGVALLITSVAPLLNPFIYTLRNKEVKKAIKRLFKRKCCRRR

OR2T4 = molecular target: T7, OR2T4 (Homo sapiens, UniProt Q8NH00, D328E/G331D/M330K); assay: cell-based; conditions: OR2T4 with SEQ ID NO: 86
T7 construct: expressed in transfected cells; host or cells: HEK293T cells stably expressing human RTP1S (V227I) and RTP2 (L220R)
T7 sequence (Q8NH00 with tags, fused parts or gaps D328E/M330K/G331D): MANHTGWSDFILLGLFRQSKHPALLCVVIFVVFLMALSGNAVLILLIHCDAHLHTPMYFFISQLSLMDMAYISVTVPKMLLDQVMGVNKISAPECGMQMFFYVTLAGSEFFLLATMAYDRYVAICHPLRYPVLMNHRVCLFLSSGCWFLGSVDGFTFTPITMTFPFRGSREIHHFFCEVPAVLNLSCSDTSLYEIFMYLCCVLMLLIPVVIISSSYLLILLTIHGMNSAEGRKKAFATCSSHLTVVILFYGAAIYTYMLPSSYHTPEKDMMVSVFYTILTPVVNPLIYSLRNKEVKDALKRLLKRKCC
Description: as §1

OR5A2 = molecular target: T8, OR5A2 (Homo sapiens, UniProt Q8NGI9); assay: Luciferase dose-response, wild-type vs changed C-terminus (SEQ ID NO: 86); conditions: OR5A2 with SEQ ID NO: 86
T8 construct: expressed in transfected cells; host or cells: HEK293T cells with stably integrated human RTP1S (V227I) and RTP2 (L220R)
T8 sequence (Q8NGI9 with tags, fused parts or gaps): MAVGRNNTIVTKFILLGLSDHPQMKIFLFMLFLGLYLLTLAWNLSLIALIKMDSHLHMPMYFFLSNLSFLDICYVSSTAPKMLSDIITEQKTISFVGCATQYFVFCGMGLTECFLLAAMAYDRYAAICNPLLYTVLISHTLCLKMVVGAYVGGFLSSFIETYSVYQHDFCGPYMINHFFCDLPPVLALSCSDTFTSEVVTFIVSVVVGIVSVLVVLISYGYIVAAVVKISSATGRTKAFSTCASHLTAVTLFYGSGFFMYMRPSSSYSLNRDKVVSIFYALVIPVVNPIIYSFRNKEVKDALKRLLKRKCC
Description: as §1

Compound | EC10 (concentration for 10-fold OR activation) (OR10A3) | EC2 (concentration for 2-fold luciferase induction) [1] | EC2 (concentration for 2-fold luciferase induction) (OR10J1(M51I,I92M)) | EC2 (concentration for 2-fold luciferase induction) (OR2J2) | EC2 (concentration for 2-fold luciferase induction) (OR2AP1) | further results
CC(CO)C1=C2C(C)(C)C3CCC2(C3)C(C)(C)CC1 (stereo not shown) [Ambermax] |  |  |  |  |  | Comments on efficacy (OR7C1): 3.5-fold lower maximal induction for wild-type; Fold-improvement potency (OR7C1): 2.7; Fold-improvement threshold (OR7C1): 16.2; luciferase induction (OR7C1; 1 µM, OR7C1 with SEQ ID NO: 86): around 10 fold; EC50 (OR7C1; changed C-term SEQ ID NO: 86): 2.3 µM; Detection threshold; concentration for 2-fold induction (OR7C1; changed C-term. SEQ ID NO: 86): 0.17 µM; Detection threshold; concentration for 2-fold induction (OR7C1; wild-type): 2.76 µM; EC50 (OR7C1; wild-type): 6.14 µM
CCCC1CCC(=O)O1 (stereo not shown) [Heptalactone gamma] | 298.04 µM | inactive | inactive | inactive | inactive | 
CCCCCCCC1CCCC(=O)O1 (stereo not shown) [Dodecalactone delta] | 2.59 µM | 1.11 µM | 31.38 µM | 35.12 µM | 15.76 µM | 
CCCCC1CCC(=O)O1 (stereo not shown) [Octalactone gamma] | 26.93 µM | inactive | 101.73 µM | 65.20 µM | inactive | 
CCCCCCCC1CCC(=O)O1 (stereo not shown) [Undecalactone gamma] | 0.28 µM | 0.34 µM | 2.11 µM | 0.71 µM | 6.53 µM | 
CCCCCC1CCCC(=O)O1 (stereo not shown) [Decalactone delta] | 2.10 µM | 5.31 µM | 31.73 µM | 98.89 µM | inactive | 
CC1OCCC1S (stereo not shown) [2-methyl-3-tetrahydrofuranthiol] |  |  |  |  |  | ligands identified in screening of sulfur odorants (OR2T4): good ligands
CCCSSCCC [dipropyl disulfide] |  |  |  |  |  | ligands identified in screening of sulfur odorants (OR2T4): good ligands
CCCCCCCCC1CCC(=O)O1 (stereo not shown) [Dodecalactone gamma] | 0.85 µM | 0.48 µM | 5.31 µM | 1.41 µM | 1.31 µM | 
CCCCCC1CCC(=O)O1 (stereo not shown) [Nonalactone gamma] | 2.83 µM | 11.34 µM | 11.14 µM | 12.85 µM | inactive | 
CCOc1cc(C=O)ccc1O [ethyl vanillin] |  |  |  |  |  | response of the modified receptor (OR5A2): no response
CCCCCCC1CCC(=O)O1 (stereo not shown) [Decalactone gamma] | 0.84 µM | 1.62 µM | 3.63 µM | 3.27 µM | 33.66 µM | 
CC1=CCC(C(C)CC2CCCC2=O)CC1 (stereo not shown) [Nectaryl] | 2.32 µM | 1.12 µM | inactive |  | 19.72 µM | 

— EP4664463A1, “COMPUTER-IMPLEMENTED METHOD FOR OLFACTORY PROPERTY PREDICTION” (Givaudan SA, priority 2024, dated 2025)
